Source: US20250346606A1, “CAMPTOTHECIN COMPOUND, PREPARATION METHOD THEREFOR, AND APPLICATION THEREOF” (SICHUAN KELUN-BIOTECH BIOPHARMACEUTICAL CO., LTD., priority 2021, published 2025)
Where two headings read alike, the source gives them in different places.

Experiments:
Type in all cases: cell-based, Human
HCC70 cells = test: Inhibitory effect of compounds on HCC70 cell proliferation; conditions: read-out: IC50, inhibitory activity on HCC70 cell proliferation
Protocol: (1) Cell plating: First, tumor cells HCC70 were cultured in corresponding medium, then digested with trypsin, centrifuged, resuspended, and counted, and the cells were adjusted to an appropriate concentration for plating.
(§1) Co-incubation of the compound of the present disclosure and tumor cells: after the cells adhered to the wall, the medium was removed, and the diluted bioactive molecule (the compound of the present disclosure) was added to the wells of the above plate, and incubated for 72 h.
(§2) In vitro cell viability detection: After the incubation, 50 μL of Cell Counting-Lite™ 2.0 reagent (Vazyme/Novazyme) was added to each well, shaken and mixed well in the dark, reacted for 10 minutes, and then the detection was carried out with a microplate reader (manufacturer: BMG, Model: PHERAStar-FS) for reading. The background RLU was obtained by using cell-free medium (with Cell Counting-Lite™), and the vehicle RLU was obtained by using cell-containing medium (with Cell Counting-Lite™). Cell inhibition rate=1−(sample RLU−background RLU)/(solvent RLU−background RLU)×100%. According to the four-parameter model fitting curve, the half maximal inhibitory concentration (IC50) of the compound was calculated, and the detection results were shown in Table 16.

A549 cells = test: Inhibitory effect of compounds on A549 cell proliferation; conditions: read-out: IC50, inhibitory activity on A549 cell proliferation
NCI-H358 cells = test: Inhibitory effect of compounds on NCI-H358 cell proliferation
How it was run: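 Adherent NCI-H358 cells were exposed to compound for 72 h, then viability was read by luminescence (Cell Counting-Lite 2.0). Inhibition calculated from RLU relative to cell-free background and vehicle wells; IC50 from a four-parameter fit.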

HT29 cells = test: Inhibitory effect of compounds on HT29 cell proliferation; conditions: read-out: IC50, inhibitory activity on HT29 cell proliferation
How it was run: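 Adherent HT29 cells incubated with diluted compounds for 72 h; viability read by luminescence (Cell Counting-Lite 2.0, 10 min). Inhibition calculated against cell-free background and vehicle-treated cells; IC50 from four-parameter curve fit.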

Hela cells = test: Inhibitory effect of compounds on Hela cell proliferation; conditions: read-out: IC50, inhibitory activity on Hela cell proliferation
MDA-MB-231 cells = test: Inhibitory effect of compounds on MDA-MB-231 cell proliferation; conditions: read-out: IC50, inhibitory activity on MDA-MB-231 cell proliferation
Protocol: (1) Cell plating: First, tumor cells MDA-MB-231 were cultured in corresponding medium, then digested with trypsin, centrifuged, resuspended, and counted, and the cells were adjusted to an appropriate concentration for plating.
as §1
as §2, with “18.” for “16.”

[1] = Homo sapiens, NCI-H358, 72 h, read-out: IC50, inhibitory activity on NCI-H358 cell proliferation, NCI-H358 human non-small cell lung cancer cells, 72 h incubation, Cell Counting-Lite 2.0

## CC[C@@]1(O)C(=O)OCc2c1cc1n(c2=O)Cc2c-1nc1cc(Cl)c(C)c3c1c2[C@H](NC(=O)[C@@H](O)C1CC1)CC3 [Example 5 (2-12-B), (2S)—N-((1R,9S)-5-chloro-9-ethyl-9-hydroxy-4-methyl-10,13-dioxo-2,3,9,10,13,15-hexahydro-1H,12H-benzo[de]pyrano[3′,4′:6,7]indolizino[1,2-b]quinolin-1-yl)-2-cyclopropyl-2-hydroxyacetamide]
HCC70 cells; Homo sapiens, HCC70, 72 h
  IC50: 176 nM
A549 cells; Homo sapiens, A549, 72 h
  IC50: 5.52 nM
NCI-H358 cells; [1]
  IC50: 15.8 nM
HT29 cells; Homo sapiens, HT-29, 72 h
  IC50: 2.34 nM
Hela cells; Homo sapiens, HeLa, 72 h
  IC50: 16.7 nM

## CC#C[C@@H](O)C(=O)N[C@H]1CCc2c(C)c(F)cc3nc4c(c1c23)Cn1c-4cc2c(c1=O)COC(=O)[C@]2(O)CC [Example 1 (1-1-A), (R)—N-((1S,9S)-9-ethyl-5-fluoro-9-hydroxy-4-methyl-10,13-dioxo-2,3,9,10,13,15-hexahydro-1H,12H-benzo[de]pyrano[3′,4′:6,7]indolizino[1,2-b]quinolin-1-yl)-2-hydroxypent-3-yneamide]
MDA-MB-231 cells; Homo sapiens, MDA-MB-231, 72 h
  IC50: 364 nM
HCC70 cells; Homo sapiens, HCC70, 72 h
  IC50: 225 nM
A549 cells; Homo sapiens, A549, 72 h
  IC50: 66.6 nM
NCI-H358 cells; [1]
  IC50: 65.2 nM
HT29 cells; Homo sapiens, HT-29, 72 h
  IC50: 1.28 nM
Hela cells; Homo sapiens, HeLa, 72 h
  IC50: 4.57 nM

## (2S)—N-((1S,9S)-5-chloro-9-ethyl-9-hydroxy-4-methyl-10,13-dioxo-2,3,9,10,13,15-hexahydro-1H,12H-benzo[de]pyrano[3′,4′:6,7]indolizino[1,2-b]quinolin-1-yl)-2-hydroxypropylamine [Example 4 (2-7-A)]
MDA-MB-231 cells; MDA-MB-231 human breast cancer cells, 72 h incubation, Cell Counting-Lite 2.0
  IC50: 124 nM
HCC70 cells; HCC70 human breast cancer cells, 72 h incubation, Cell Counting-Lite 2.0
  IC50: 151 nM
A549 cells; A549 human lung cancer cells, 72 h incubation, Cell Counting-Lite 2.0
  IC50: 6.97 nM
NCI-H358 cells; NCI-H358 human non-small cell lung cancer cells, 72 h incubation, Cell Counting-Lite 2.0, read-out: IC50, inhibitory activity on NCI-H358 cell proliferation
  IC50: 35.4 nM
HT29 cells; HT29 human colon cancer cells, 72 h incubation, Cell Counting-Lite 2.0
  IC50: 1.56 nM
Hela cells; Hela human cervical cancer cells, 72 h incubation, Cell Counting-Lite 2.0
  IC50: 13.8 nM

## CC[C@@]1(O)C(=O)OCc2c1cc1n(c2=O)Cc2c-1nc1cc(Cl)c(C)c3c1c2[C@@H](NC(=O)[C@@H](O)C1CC1)CC3 [Example 5 (2-12-A), (2S)—N-((1S,9S)-5-chloro-9-ethyl-9-hydroxy-4-methyl-10,13-dioxo-2,3,9,10,13,15-hexahydro-1H,12H-benzo[de]pyrano[3′,4′:6,7]indolizino[1,2-b]quinolin-1-yl)-2-cyclopropyl-2-hydroxyacetamide]
MDA-MB-231 cells; Homo sapiens, MDA-MB-231, 72 h
  IC50: 124 nM
HCC70 cells; Homo sapiens, HCC70, 72 h
  IC50: 171 nM
A549 cells; Homo sapiens, A549, 72 h
  IC50: 6.96 nM
NCI-H358 cells; [1]
  IC50: 17.6 nM
HT29 cells; Homo sapiens, HT-29, 72 h
  IC50: 3.01 nM
Hela cells; Homo sapiens, HeLa, 72 h
  IC50: 13.2 nM
